The source made the active and inactive calls.
Tests used:
[1] = target: T1, Type-1 angiotensin II receptor (Homo sapiens, UniProt P30556); experiment: antagonism of angiotensin II type 1 receptor – cell-based, uHTS hits, selectivity assay for APJ receptor antagonist project, dose response (AID 463214); type: functional;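 further: antagonist potency against angiotensin II stimulated AT1 response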
T1 sequence (P30556 whole entry): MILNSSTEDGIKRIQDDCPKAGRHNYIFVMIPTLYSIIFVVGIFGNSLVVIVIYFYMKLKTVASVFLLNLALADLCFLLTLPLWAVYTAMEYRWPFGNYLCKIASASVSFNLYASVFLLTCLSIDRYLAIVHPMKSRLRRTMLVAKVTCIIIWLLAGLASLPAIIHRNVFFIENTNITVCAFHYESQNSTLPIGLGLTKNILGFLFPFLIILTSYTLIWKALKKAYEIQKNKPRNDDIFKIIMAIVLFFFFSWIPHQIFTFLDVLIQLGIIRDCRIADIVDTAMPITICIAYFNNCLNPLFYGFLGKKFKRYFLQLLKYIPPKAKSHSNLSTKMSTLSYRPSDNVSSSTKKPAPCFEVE

Beta-galactosidase = Beta-galactosidase (Escherichia coli, UniProt Q8VNN2); experiment: PubChem AID 485352; type: functional
[2] = target: T2, Nuclear receptor subfamily 0 group B member 1 (Homo sapiens, UniProt P51843); experiment: Luminescence-based cell-based high throughput dose response assay for inhibitors of the orphan nuclear receptor subfamily 0, group B, member 1 (DAX1; NR0B1). [Related pubchem assays (depositor defined):AID504766, AID504790]; type: functional
T2 sequence (P51843 whole entry): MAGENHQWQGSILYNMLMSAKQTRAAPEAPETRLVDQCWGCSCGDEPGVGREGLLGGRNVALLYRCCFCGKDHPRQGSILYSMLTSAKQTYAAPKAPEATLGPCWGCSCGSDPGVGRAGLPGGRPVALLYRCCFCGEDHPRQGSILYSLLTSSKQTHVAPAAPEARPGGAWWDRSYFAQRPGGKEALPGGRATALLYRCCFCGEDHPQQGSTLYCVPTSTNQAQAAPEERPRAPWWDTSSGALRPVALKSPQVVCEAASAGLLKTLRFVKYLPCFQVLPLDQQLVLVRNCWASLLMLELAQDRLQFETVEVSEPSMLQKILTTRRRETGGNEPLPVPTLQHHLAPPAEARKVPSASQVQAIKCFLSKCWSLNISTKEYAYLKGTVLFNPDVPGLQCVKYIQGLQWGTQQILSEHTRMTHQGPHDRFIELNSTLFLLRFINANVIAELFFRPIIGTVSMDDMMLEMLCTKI

[3] = A549 cell cytotoxicity, dose response, cytotoxicity control, plate reader, cherry-pick, antagonist series (AID 743412); type: functional, cell-based
HEK293 = experiment: cells; type: functional, cell-based; conditions: Homo sapiens
[4] = blockers of bursicon-stimulated LGR2 cAMP reporter – cell-based, HEK293, CRE-luciferase reporter, cherry pick, set 2, dose response (AID 743343); type: functional;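 further: transfected cells were stimulated with diluted bursicon conditioned medium after compound addition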
[5] = blockade of melanocortin 4 receptor signaling – cell-based, plate reader, cherry pick, counter-screen for LGR2 antagonist project, dose response (AID 743444); type: functional;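 further: transfected HEK 293 cells stimulated with alpha-MSH peptide; potency of inhibitors of the alpha-MSH evoked signal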
Cytochrome P450 2C9 = Cytochrome P450 2C9 (Homo sapiens, UniProt P11712)
[6] = target: T3, Short transient receptor potential channel 4 (Mus musculus, UniProt Q9QUQ5); experiment: calcium entry via TRPC4 opening agents – cell-based, HEK293 TRPC4/mu-opioid, Fluo-4 calcium, dose response (AID 434937); type: functional
T3 sequence (Q9QUQ5 whole entry): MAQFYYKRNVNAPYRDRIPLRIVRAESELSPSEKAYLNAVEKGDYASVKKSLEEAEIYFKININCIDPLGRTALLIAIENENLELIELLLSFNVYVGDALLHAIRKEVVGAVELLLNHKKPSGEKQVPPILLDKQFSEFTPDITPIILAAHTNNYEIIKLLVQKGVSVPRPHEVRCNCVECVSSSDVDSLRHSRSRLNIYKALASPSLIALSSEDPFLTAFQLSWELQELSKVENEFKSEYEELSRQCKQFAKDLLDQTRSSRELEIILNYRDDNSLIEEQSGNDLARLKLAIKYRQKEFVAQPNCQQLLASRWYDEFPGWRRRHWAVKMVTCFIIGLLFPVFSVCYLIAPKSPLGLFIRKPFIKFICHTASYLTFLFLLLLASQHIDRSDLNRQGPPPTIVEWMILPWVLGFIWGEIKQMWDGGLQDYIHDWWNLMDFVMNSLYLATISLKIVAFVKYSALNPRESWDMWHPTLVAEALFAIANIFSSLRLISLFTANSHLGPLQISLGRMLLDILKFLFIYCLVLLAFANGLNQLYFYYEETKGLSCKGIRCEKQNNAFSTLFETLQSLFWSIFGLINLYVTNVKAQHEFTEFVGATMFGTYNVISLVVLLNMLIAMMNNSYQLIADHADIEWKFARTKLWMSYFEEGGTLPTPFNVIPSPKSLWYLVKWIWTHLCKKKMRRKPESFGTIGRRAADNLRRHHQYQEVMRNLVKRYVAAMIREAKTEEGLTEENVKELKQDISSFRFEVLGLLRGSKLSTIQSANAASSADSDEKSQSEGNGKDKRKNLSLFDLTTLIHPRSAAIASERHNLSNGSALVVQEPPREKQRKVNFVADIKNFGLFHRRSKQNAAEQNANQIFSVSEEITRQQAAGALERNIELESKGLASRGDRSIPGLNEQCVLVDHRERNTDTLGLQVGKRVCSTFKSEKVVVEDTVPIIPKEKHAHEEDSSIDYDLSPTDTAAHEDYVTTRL

[7] = target: Delta-type opioid receptor (Homo sapiens, UniProt P41143); experiment: Counterscreen for agonists of heterodimerization of the mu 1 (OPRM1) and delta 1 (OPRD1) opioid receptors: Luminescence-based cell-based high throughput dose response assay to identify agonists of OPRD1 homodimerization. [Related pubchem assays (depositor defined):AID504326, AID504355, AID504692, AID504904, AID504905]; type: functional
[8] = A Cell Based Secondary Assay To Explore Cytotoxicity of Compounds that Sensitize Mycobacterium Tuberculosis to Beta-Lactam Antibiotics.; type: functional
Mu-type opioid receptor = Mu-type opioid receptor (Homo sapiens, UniProt P35372); experiment: Counterscreen for agonists of heterodimerization of the mu 1 (OPRM1) and delta 1 (OPRD1) opioid receptors: Luminescence-based cell-based high throughput dose response assay to identify agonists of OPRM1 homodimerization.; type: functional;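 further: U2OS cells expressing OPRM1 and beta-arrestin as split beta-galactosidase partners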
[9] = target: 5-hydroxytryptamine receptor 5A (Homo sapiens, UniProt P47898); experiment: Counterscreen for agonists of OPRM1-OPRD1 heterodimerization: luminescence-based cell-based high throughput dose response assay to identify agonists of 5-hydroxytryptamine (serotonin) 5A receptor (HTR5A). [Related pubchem assays (depositor defined):AID504326, AID504355, AID504692, AID504904, AID504905]; type: functional
[10] = target: T4, DNA repair protein RAD52 homolog (Homo sapiens, UniProt P43351); type: functional, biochemical
T4 sequence (P43351 whole entry): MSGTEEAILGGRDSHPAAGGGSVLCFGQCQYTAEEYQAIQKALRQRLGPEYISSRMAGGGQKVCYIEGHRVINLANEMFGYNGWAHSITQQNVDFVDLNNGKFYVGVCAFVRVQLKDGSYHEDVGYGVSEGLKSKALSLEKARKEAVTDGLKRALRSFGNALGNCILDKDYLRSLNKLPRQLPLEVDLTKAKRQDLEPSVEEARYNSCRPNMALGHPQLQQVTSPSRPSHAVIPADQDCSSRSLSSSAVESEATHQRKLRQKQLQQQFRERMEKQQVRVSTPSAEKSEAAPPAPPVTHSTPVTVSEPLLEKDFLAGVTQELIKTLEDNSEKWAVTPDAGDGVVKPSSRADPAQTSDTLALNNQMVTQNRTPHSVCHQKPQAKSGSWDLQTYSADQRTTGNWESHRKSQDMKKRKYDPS

[11] = target: T5, RNA-binding protein pos-1 (Caenorhabditis elegans, UniProt G5EF15); experiment: disruptors of C. elegans POS-1 RNA interaction – biochemical, fluorescence polarization, dose response (AID 1964);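 further: purified POS-1 fused to maltose binding protein made in E. coli; potency of compounds blocking POS-1 binding to fluorescent RNA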
T5 sequence (G5EF15 whole entry): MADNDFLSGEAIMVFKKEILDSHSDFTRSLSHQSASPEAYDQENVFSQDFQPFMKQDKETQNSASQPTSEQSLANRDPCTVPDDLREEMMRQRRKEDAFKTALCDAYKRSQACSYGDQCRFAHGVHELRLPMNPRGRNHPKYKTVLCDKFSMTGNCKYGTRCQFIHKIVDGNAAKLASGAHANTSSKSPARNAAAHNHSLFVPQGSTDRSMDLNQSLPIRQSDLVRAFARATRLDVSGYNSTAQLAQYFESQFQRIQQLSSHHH

[12] = target: T6, Zinc finger protein mex-5 (Caenorhabditis elegans, UniProt Q9XUB2); experiment: potency of MEX-5 RNA-binding blockers – biochemical, C. elegans, fluorescence polarization, dose response (AID 1960)
T6 sequence (Q9XUB2 whole entry): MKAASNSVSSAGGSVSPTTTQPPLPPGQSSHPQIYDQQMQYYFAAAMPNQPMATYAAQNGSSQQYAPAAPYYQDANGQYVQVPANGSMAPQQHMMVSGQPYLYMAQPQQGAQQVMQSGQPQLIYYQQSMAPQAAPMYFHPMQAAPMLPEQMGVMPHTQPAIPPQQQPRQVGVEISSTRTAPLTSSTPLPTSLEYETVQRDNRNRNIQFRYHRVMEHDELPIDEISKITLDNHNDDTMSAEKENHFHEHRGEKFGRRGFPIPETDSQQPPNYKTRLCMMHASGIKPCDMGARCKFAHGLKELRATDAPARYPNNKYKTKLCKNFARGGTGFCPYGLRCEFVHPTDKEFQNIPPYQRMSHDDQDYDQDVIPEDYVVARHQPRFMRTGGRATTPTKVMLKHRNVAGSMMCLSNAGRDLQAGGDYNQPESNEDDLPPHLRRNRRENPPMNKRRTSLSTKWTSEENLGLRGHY

[13] = target: T7, Endoribonuclease toxin MazF (Escherichia coli K-12, UniProt P0AE70); experiment: substrate-only fluorescence increase artefacts – biochemical, single-stranded RNase substrate, counter-screen for MazEF activator project, dose response (AID 588502); type: functional
T7 sequence (P0AE70 whole entry): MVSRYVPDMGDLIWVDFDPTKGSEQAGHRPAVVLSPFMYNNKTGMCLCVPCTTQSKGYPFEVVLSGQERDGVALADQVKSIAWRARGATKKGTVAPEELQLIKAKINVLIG

[14] = target: T7, Endoribonuclease toxin MazF; experiment: activation of MazEF endoribonuclease cleavage – biochemical, fluorescence, single-stranded RNA substrate, uHTS hits, dose response (AID 588481); type: functional
[15] = Luminescence Cell-Based Dose Response HTS to Identify Inhibitors of 5'UTR Stem-Loop Driven Prion Protein mRNA Translation in H4 Neuroglioblastoma Cells. [Related pubchem assays: 1827 (Project Summary), 1813 (Primary HTS)]; type: functional
[16] = luciferase reporter signal suppression in cells – H4 neuroglioma cells, luminescence, dose response (AID 1990); type: functional, cell-based
INS1 = experiment: INS-1E survival protection against cytokine death – cell-based, luminescence, retest, dose response (AID 449756); type: functional; conditions: Rattus norvegicus;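 further: cell death triggered by IL-1 beta plus TNF-alpha plus IFN-gamma mixture; protective hits raise ATP signal compared with cytokine alone wells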
[17] = alpha-synuclein stem-loop luciferase translation blockers – H4 neuroglioma cells, luminescence, confirmation (AID 1988); type: functional, cell-based
Streptococcus = experiment: GAS UMAA2166 growth inhibition – luminescence, BacTiterGlo, counter-screen for streptokinase expression inhibitor project, dose response (AID 1915); type: functional, organism-based;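 further: potency for reduction of bacterial viability or growth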
[18] = tested on: Streptococcus sp. 'group A'; experiment: Streptococcus pyogenes SK(-)GAS viability under kanamycin – luminescence, BacTiterGlo, confirmation, counter-screen for streptokinase expression inhibitor project, dose response (AID 1900); type: functional, organism-based

Beta-galactosidase, sequence (Q8VNN2 whole entry): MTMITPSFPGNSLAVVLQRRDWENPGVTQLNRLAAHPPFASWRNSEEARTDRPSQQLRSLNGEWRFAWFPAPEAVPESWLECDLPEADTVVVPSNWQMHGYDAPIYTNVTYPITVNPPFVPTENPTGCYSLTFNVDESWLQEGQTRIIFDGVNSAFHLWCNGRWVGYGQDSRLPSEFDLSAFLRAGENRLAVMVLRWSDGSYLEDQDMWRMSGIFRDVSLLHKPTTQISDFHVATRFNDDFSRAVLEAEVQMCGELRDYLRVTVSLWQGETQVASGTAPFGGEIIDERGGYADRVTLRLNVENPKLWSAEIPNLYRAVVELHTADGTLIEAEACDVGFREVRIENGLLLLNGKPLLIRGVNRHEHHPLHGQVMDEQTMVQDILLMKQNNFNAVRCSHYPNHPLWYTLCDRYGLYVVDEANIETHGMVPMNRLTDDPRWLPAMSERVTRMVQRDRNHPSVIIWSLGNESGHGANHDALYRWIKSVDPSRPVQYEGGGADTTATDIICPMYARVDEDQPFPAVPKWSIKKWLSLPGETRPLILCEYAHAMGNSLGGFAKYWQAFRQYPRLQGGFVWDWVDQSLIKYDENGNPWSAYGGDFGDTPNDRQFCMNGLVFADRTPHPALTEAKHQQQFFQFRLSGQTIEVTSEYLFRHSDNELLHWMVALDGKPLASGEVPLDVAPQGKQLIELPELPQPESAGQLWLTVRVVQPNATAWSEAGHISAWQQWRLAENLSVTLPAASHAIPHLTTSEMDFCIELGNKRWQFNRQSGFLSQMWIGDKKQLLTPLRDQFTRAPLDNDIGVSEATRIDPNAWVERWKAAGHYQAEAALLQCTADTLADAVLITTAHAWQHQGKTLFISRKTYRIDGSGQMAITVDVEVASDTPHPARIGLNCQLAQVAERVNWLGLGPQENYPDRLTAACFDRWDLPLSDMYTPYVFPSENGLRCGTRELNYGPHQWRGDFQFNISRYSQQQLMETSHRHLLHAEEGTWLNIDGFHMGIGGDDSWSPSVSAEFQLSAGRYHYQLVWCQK
Delta-type opioid receptor, sequence (P41143 whole entry): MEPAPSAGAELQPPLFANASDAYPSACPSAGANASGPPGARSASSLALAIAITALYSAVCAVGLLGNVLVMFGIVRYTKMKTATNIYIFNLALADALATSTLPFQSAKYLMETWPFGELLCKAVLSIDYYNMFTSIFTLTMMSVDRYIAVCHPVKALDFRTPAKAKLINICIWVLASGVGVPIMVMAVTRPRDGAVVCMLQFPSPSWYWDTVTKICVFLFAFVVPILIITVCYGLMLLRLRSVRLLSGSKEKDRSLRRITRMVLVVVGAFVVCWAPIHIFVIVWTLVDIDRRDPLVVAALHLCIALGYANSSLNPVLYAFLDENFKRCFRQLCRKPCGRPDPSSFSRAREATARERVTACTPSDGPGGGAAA
Mu-type opioid receptor, sequence (P35372 whole entry): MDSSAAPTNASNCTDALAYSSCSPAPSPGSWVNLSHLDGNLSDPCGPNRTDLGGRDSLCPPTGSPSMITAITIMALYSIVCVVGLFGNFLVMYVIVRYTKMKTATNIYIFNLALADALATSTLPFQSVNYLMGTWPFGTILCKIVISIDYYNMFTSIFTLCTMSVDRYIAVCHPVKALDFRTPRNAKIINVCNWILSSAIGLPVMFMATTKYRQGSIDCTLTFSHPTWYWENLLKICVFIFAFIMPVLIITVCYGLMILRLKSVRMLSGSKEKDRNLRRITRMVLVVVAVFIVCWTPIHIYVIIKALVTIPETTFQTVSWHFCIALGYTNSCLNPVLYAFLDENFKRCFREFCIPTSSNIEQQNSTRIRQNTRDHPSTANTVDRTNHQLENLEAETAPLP
5-hydroxytryptamine receptor 5A, sequence (P47898 whole entry): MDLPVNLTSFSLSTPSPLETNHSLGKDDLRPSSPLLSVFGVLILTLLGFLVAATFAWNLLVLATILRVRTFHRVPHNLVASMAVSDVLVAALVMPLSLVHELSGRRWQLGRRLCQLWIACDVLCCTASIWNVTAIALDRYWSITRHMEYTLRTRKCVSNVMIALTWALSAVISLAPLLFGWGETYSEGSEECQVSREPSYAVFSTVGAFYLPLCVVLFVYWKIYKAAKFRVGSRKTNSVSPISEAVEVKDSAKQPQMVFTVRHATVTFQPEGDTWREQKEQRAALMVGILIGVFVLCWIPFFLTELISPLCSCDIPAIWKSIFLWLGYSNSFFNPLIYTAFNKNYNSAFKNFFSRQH
Cytochrome P450 2C9, sequence (P11712 whole entry): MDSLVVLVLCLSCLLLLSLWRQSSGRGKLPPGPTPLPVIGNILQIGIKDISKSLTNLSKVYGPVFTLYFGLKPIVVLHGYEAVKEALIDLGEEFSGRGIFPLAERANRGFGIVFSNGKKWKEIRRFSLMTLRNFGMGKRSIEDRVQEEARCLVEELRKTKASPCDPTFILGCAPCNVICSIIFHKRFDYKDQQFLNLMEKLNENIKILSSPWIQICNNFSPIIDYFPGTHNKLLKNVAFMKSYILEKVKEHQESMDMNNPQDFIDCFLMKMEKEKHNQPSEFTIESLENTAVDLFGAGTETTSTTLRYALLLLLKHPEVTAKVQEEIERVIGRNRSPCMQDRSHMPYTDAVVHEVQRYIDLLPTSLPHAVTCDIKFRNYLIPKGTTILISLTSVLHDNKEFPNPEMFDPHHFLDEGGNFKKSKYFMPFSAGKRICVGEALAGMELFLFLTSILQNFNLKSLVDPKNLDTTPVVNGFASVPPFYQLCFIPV

COC(=O)CSc1[nH]c2ccc(Br)cc2c1[N+](=O)[O-]
IC50 [1]: > 40 µM (not active) | EC50 (Beta-galactosidase): > 40 µM (inactive)

Nc1nccc(-c2cc(-c3ccc(Cl)cc3Cl)no2)n1
IC50 [2]: > 67.6 µM (inactive) | AC50 [3]: > 52 µM (inactive) | IC50 (HEK293): > 67.6 µM (inactive) | AC50 [4]: 8.96 µM (active) | AC50 [5]: 8.35 µM (active)

O=C(COC(=O)c1cccnc1)c1ccc(Cl)c(Cl)c1
IC50 [1]: 36.8 µM (not active) | AC50 (Cytochrome P450 2C9): 7.94 µM (inconclusive) | EC50 (Beta-galactosidase): > 40 µM (inactive)

CN1CCN(c2ccc(NC(=O)c3ccc(-c4cccc([N+](=O)[O-])c4)o3)cc2)CC1
EC50 [6]: 0.299 µM (active) | EC50 [7]: 70 µM (inactive) | CC50 [8]: 29 µM (active) | EC50 (Mu-type opioid receptor): > 30.8 µM (inactive) | EC50 [9]: > 92.5 µM (inactive) | AC50 [10]: 10.3 µM (active)

Cn1c(N)c(C(=O)COC(=O)CSc2ccccc2)c(=O)n(C)c1=O
IC50 [2]: > 67.6 µM (inactive) | IC50 (HEK293): > 67.6 µM (inactive)

COc1ccc(OC)c(C(C)NC(=O)c2ccc(Br)cc2)c1 (stereo not drawn)
IC50 [2]: > 67.6 µM (inactive) | IC50 (HEK293): > 67.6 µM (inactive)

Oc1[nH]c2ccccc2c1N=Nc1cccc(Cl)c1
EC50 [11]: 125 µM (active) | EC50 [12]: 45.4 µM (active) | EC50 [13]: > 99 µM (inactive) | EC50 [14]: > 99 µM (inactive)

COc1cc(Br)cc(/C=N/NC(=O)Cc2ccc(C(F)(F)F)cc2[N+](=O)[O-])c1O
EC50 [15]: 12.6 µM (active) | EC50 [7]: > 92.4 µM (inactive) | EC50 (Mu-type opioid receptor): > 92.4 µM (inactive) | EC50 [16]: > 120 µM (not active) | EC50 [9]: > 92.4 µM (inactive) | AC50 (INS1): 4.33 µM (active) | EC50 [17]: 9.21 µM (active) | EC50 (Streptococcus): 2.42 µM (active) | EC50 [18]: 1.84 µM (active)
